Results on twelve compounds are retold here after patent US20150329558A1, “FUSED HETEROCYCLIC COMPOUNDS AS ION CHANNEL MODULATORS” (Gilead Sciences, Inc., priority 2011, published 2015).

Data set [1] concerns the target wild-type human cardiac sodium channel, hNav1.5 (peak INa) (Homo sapiens, UniProt Q14524). The experiment in a line: Peak INa screening assay (tonic and use-dependent block). In kind it is cell-based. The note with it: 1 μM. The protocol:
The late sodium current (Late INa) and peak sodium current (Peak INa) assays are performed on an automated electrophysiology platform, QPatch 16× (Sophion Bioscience, Copenhagen, Denmark), which uses the whole cell patch clamp technique to measure currents through the cell membrane of up to 16 cells at a time. The assay uses an HEK293 (human embryonic kidney) cell line heterologously expressing the wild-type human cardiac sodium channel, hNav1.5, purchased from Millipore (Billerica, Mass.). No beta subunits were coexpressed with the Na channel alpha subunit. Cells are maintained with standard tissue culture procedures and stable channel expression is maintained with 400 μg/mL Geneticin in the culture medium. […] Experiments are carried out at 23-25° C. For both the Late INa and Peak INa assays, series resistance compensation is set to 100% and series resistance and whole-cell compensation are performed automatically. Currents are digitized at 25 kHz and low-pass filtered at 12 kHz and 10 kHz for the late and peak INa assays, respectively. Currents through open sodium channels are automatically recorded and stored in the Sophion Bioscience Oracle database (Sophion Bioscience, Copehagen, Denmark). Analysis is performed using QPatch Assay and database software and data are compiled in Excel. Compound stocks are routinely made by the Gilead Sample Bank in plastic vials to 10 mM in dimethyl sulfoxide (DMSO). In some cases, when compounds are not soluble in DMSO, they are made in 100% ethanol. Stocks are sonicated as necessary. […] The intracellular solution used to perfuse the inside of the cells for both the Late INa and Peak INa assays contains: 120 mM CsF, 20 mM CsCl, 5 mM EGTA, 5 mM HEPES and pH adjusted to 7.4 with CsOH. Compounds are diluted in extracellular solution to 1 μM in glass vials and then transferred to glass well plates before robotic addition to the cells. […] Compounds were also evaluated for their effect in several other assays, including their effect on Peak INa. Good separation between the concentrations of test compound to reduce late and peak INa is beneficial to enable separation of the desired effect to reduce late INa-induced electrical and mechanical dysfunction from the undesired effect to reduce peak INa, which can lead to slowing or block of conduction of electrical excitation in the heart. It is contemplated that the compounds of Formula I avoid significant block of peak INa. Since the peak INa in the cells used herein can be very large, introducing artifacts in the recording, the concentration of Na^+ in the bath can be reduced to 20 mM and a nonpermeant cation added to compensate for the Na^+ that was removed to maintain the osmolarity and ionic strength of the solution (see solution details below). Analysis of peak INa generally requires correction for rundown before determining the % block of peak current by the tested compound. […] A low stimulation frequency of 0.1 Hz was used to determine the effect of the test compound when the channel spent most of the time in the resting (closed) state and provides information about Tonic Block (TB). A higher stimulation frequency (3 Hz) was used to measure block of the channel when it spent more time in the activated and inactivated states and provided a measure of Use-Dependent Block (UDB). Use-dependent block refers to the accumulation of block with increased frequency of channel activation. Block of cardiac peak INa by compounds of this invention is increased with an increase in the frequency of stimulation from 0.1 to 1-5 Hz (frequencies encountered either in the normal heart or during tachycardia). It is therefore expected that reduction of peak INa by compounds of this invention will be greater at high heart rates, such as those during tachyarrhythmias, than at normal heart rates. […]

Data set [2] in a line: Microsomal stability assay, dog. The class given is in vitro ADME. The note with it: metabolic stability, dog liver microsomes 0.5 mg/mL, substrate 3 uM. The protocol:
(§1) The micorsomal stability assay is generally performed as follows. Format: 15 compounds (and 1 control verapamil) in 3 different species in duplicate sets Substrate: 3 uM Protein concentration: 0.5 mg/mL (for dog, rat, and human liver microsomes) Cofactor: 1×NADPH-Regenerating system Time-points: 2, 12, 25, 45, and 65 minutes [table] Sample preparation: 25 uL at each timepoint is added to plate with 225 uL quenching solution (50% MeOH, 25% ACN, 25% H2O, and 50 nM […]). After plates are vortexed, centrifuge for 30 minutes. Microsomal solutions: take 400 uL of 20 mg/mL microsomes and add to 13,680 uL 100 mM KPO4 buffer. Using an 8-channel, add 650 uL of this solution to the designated two columns on a short plate. The order should be dog microsomes in columns 1 and 2, rat microsomes in columns 3 and 4, and human microsomes in columns 5 and 6. Keep on ice before use. Place this plate in incubator 1 on the TECAN countertop.
For orientation: Microsomes from liver hold many membrane-bound enzymes, among them those of drug oxidation.

A short description of data set [3]: Microsomal stability assay, human. In kind it is in vitro ADME. The note with it: metabolic stability, human liver microsomes 0.5 mg/mL, substrate 3 uM. The protocol: as §1
The nature of data set [4]: Microsomal stability assay, rat. The class given is in vitro ADME. Conditions: metabolic stability, rat liver microsomes 0.5 mg/mL, substrate 3 uM. Here is the method:
as §1

For data set [5], the target named is wild-type human cardiac sodium channel, hNav1.5 (late INa) (Homo sapiens, UniProt Q14524). The experiment in a line: Late INa screening assay (QPatch whole cell patch clamp). The class given is cell-based. The note with it: percent block of late INa, compound at 1 μM, 10 μM Tefluthrin, HEK293 hNav1.5; read-out: Late INa 1 μM. The method, boiled down: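 HEK293 cells stably expressing hNav1.5 alpha subunit without beta subunits, QPatch automated whole-cell clamp at 23-25° C, CsF-based internal solution pH 7.4. Late INa induced by 10 μM tefluthrin; 250 ms steps to −20 mV from −120 mV at 0.1 Hz, compounds at 1 μM. Percent block of mean current 225–250 ms into the step.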
Background: Patch clamp records ionic current or voltage across a cell membrane.

[6] abbreviates: tonic block of peak INa, 0.1 Hz, read-out: Peak TB 1 μM.
Setting [7] is: use-dependent block of peak INa, 3 Hz, read-out: Peak UDB 1 μM.

Read-outs that look alike come from different tables or passages of the source. Bounds are passed on as bounds.

wild-type human cardiac sodium channel, hNav1.5 (late INa), sequence (Q14524 whole entry): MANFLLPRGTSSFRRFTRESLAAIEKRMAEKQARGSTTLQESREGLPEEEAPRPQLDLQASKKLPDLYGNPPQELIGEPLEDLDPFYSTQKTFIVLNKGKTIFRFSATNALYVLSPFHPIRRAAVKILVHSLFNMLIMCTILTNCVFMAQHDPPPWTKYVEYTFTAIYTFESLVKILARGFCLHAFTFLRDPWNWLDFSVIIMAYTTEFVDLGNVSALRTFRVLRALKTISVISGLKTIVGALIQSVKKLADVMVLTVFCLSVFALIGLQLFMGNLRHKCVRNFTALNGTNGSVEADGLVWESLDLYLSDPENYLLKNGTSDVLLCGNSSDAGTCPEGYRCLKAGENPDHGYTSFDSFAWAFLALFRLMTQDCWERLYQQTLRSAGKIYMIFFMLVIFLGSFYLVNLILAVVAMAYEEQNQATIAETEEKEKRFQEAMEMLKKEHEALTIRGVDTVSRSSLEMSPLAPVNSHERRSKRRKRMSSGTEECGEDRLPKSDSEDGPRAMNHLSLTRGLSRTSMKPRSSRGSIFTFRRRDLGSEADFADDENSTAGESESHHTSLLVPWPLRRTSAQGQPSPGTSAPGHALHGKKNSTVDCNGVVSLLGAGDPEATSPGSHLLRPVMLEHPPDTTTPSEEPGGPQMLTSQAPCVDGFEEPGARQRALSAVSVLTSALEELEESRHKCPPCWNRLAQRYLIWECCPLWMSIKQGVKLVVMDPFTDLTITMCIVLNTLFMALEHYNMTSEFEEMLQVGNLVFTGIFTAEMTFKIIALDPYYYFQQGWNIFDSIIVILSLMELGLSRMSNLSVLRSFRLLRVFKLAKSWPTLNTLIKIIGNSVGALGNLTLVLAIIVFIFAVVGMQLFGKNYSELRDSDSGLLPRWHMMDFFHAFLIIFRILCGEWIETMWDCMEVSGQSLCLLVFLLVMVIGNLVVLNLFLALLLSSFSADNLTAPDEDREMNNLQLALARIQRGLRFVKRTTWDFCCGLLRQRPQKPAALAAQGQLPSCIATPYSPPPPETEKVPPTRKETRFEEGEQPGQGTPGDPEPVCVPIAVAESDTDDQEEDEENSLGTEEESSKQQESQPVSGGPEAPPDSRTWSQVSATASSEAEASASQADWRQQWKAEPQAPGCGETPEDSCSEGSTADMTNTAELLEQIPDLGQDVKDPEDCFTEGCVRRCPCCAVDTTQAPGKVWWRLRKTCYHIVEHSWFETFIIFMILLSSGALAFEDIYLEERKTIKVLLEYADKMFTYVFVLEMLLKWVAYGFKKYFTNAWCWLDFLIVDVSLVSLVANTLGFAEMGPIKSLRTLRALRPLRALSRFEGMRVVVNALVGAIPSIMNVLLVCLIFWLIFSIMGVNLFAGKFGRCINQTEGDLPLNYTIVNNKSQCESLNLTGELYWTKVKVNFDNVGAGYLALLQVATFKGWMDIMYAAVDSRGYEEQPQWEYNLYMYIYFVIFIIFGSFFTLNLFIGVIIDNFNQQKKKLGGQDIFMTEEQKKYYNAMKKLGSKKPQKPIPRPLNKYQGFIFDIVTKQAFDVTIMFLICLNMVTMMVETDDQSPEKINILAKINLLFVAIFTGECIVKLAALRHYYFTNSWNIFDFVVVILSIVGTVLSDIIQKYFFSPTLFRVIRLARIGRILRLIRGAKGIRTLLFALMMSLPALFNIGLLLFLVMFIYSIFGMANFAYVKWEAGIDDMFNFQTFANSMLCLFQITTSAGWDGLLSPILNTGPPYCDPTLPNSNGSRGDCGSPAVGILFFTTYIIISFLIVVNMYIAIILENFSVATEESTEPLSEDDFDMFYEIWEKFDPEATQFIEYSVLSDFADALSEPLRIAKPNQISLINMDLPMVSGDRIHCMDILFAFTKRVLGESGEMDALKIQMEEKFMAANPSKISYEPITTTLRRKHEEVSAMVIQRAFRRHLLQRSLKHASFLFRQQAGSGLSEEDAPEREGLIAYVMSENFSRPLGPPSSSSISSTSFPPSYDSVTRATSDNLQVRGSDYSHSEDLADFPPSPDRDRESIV
wild-type human cardiac sodium channel, hNav1.5 (peak INa), sequence (Q14524 whole entry): as above

Turning to `O=C1c2cc(-c3ccc(C(F)(F)F)cc3)ccc2SCN1Cc1ncccn1` [Compound X-4, 3-(pyrimidin-2-ylmethyl)-6-(4-(trifluoromethyl)phenyl)-2H-benzo[e][1,3]thiazin-4(3H)-one], the inhibition at 1 µM was determined as 27% in data set [1] (setting [6]), 25% in data set [1] (setting [7]) and 52% in data set [5]. In data set [2], this compound came in with an MS Dog THalf of 126 min. Besides, the MS Human THalf in data set [3] amounted to 103 min. The MS Rat THalf in data set [4] is 122 min.
Turning to `O=C1c2cc(-c3ccc(C(F)(F)F)cc3)ccc2SCN1Cc1ccccc1Cl` [Compound X-5, 3-(2-chlorobenzyl)-6-(4-(trifluoromethyl)phenyl)-2H-benzo[e][1,3]thiazin-4(3H)-one], the inhibition at 1 µM in data set [1] (setting [6]) worked out at 12%; in data set [1] (setting [7]), 35%; in data set [5], 57%. The same compound returned an MS Dog THalf in data set [2] of 55 min. In data set [3], this compound gave an MS Human THalf of 48 min. For the same compound, the MS Rat THalf in data set [4] was 57 min.
Take `O=C1c2cc(-c3ccc(C(F)(F)F)cc3)ccc2SCN1Cc1ncccc1F` [Compound X-6, 3-((3-fluoropyridin-2-yl)methyl)-6-(4-(trifluoromethyl)phenyl)-2H-benzo[e][1,3]thiazin-4(3H)-one]: the inhibition at 1 µM in data set [1] (setting [6]) came to 35%; in data set [1] (setting [7]), 32%; in data set [5] it was 69%. Besides, the MS Dog THalf in data set [2] came out at 120 min. Further, in data set [3], the MS Human THalf is 38 min. The compound also came in with an MS Rat THalf in data set [4] of 46 min.
As to `O=C1c2cc(-c3ccc(OC(F)(F)F)cc3)ccc2SCN1Cc1ncccc1F` [Compound X-9, 3-((3-fluoropyridin-2-yl)methyl)-6-(4-(trifluoromethoxy)phenyl)-2H-benzo[e][1,3]thiazin-4(3H)-one], the inhibition at 1 µM in data set [1] (setting [6]) was 39%; in data set [1] (setting [7]) it was 31%; in data set [5] it was 67%. For the same compound, the MS Dog THalf in data set [2] came out at 75 min. In data set [3], the MS Human THalf was found to be 70 min. This compound came in with an MS Rat THalf in data set [4] of 47 min.
Take `O=c1c2cc(-c3ccc(OC(F)(F)F)cc3)ccc2nnn1Cc1ncc(Cl)cn1` [II-4, 3((5-chloropyrimidin-2-yl)methyl)-6-(4-(trifluoromethoxy)phenyl)benzo[d][1,2,3]triazin-4(3H)-one]: the inhibition at 1 µM was 9% in data set [1] (setting [6]), 4% in data set [1] (setting [7]) and 41% in data set [5]. In data set [2], the MS Dog THalf worked out at 61 min. In data set [3], this compound yielded an MS Human THalf of 270 min. The compound further registered an MS Rat THalf in data set [4] of 135 min.
`O=c1c2cc(-c3ccc(OC(F)(F)F)cc3)ccc2nnn1Cc1ncccn1` [II-24, 3-(pyrimidin-2-ylmethyl)-6-(4-(trifluoromethoxy)phenyl)benzo[d][1,2,3]triazin-4(3H)-one]: the inhibition at 1 µM stood at 19% in data set [1] (setting [6]), 24% in data set [1] (setting [7]) and 60% in data set [5]. This compound registered an MS Dog THalf in data set [2] of 219 min. Also, in data set [3], the MS Human THalf is greater than 395 min. For the same compound, the MS Rat THalf in data set [4] was determined as 324 min.
For `Cc1cc(Cn2nnc3ccc(-c4ccc(OC(F)(F)F)cc4)cc3c2=O)on1` [II-25, 3-((3-methylisoxazol-5-yl)methyl)-6-(4-(trifluoromethoxy)phenyl)benzo[d][1,2,3]triazin-4(3H)-one], the values for the inhibition at 1 µM in data set [1] (setting [6]), in data set [1] (setting [7]) and in data set [5] were 9%, 2% and 50%, respectively. Moreover, in data set [2], the MS Dog THalf is 117 min. In addition, the MS Human THalf in data set [3] came out at 363 min. This compound also returned an MS Rat THalf in data set [4] of 298 min.
As to `Cc1cc(Cn2nnc3ccc(-c4ccc(OC(F)(F)F)cc4)cc3c2=O)no1` [II-26, 3-((5-methylisoxazol-3-yl)methyl)-6-(4-(trifluoromethoxy)phenyl)benzo[d][1,2,3]triazin-4(3H)-one], the inhibition at 1 µM in data set [1] (setting [6]) was 14%; in data set [1] (setting [7]), 5%; in data set [5] it was 47%. For the same compound, in data set [2], the MS Dog THalf amounted to 67 min. This compound also came in with an MS Human THalf in data set [3] of 382 min. The MS Rat THalf in data set [4] is 80 min.
Turning to `O=c1c2cc(-c3ccc(Oc4ccc(Cl)cc4)cc3)ccc2nnn1CCn1cccn1` [II-29, 3-(2-(1H-pyrazol-1-yl)ethyl)-6-(4-(4-chlorophenoxyl)phenyl)benzo[d][1,2,3]triazin-4(3H)-one], the inhibition at 1 µM in data set [1] (setting [6]) is 44%; in data set [1] (setting [7]) it was 67%; in data set [5], 52%. The MS Dog THalf in data set [2] is 99 min. In data set [3], this compound had an MS Human THalf of 51 min. The compound further registered an MS Rat THalf in data set [4] of 27 min.
Take `Cc1nccn1CC1(Cn2nnc3ccc(-c4ccc(OC(F)(F)F)cc4)cc3c2=O)CC1` [II-34, 3-((1-((2-methyl-1H-imidazol-1-yl)methyl)cyclopropyl)methyl)-6-(4-(trifluoromethoxy)phenyl)benzo[d][1,2,3]triazin-4(3H)-one]: the inhibition at 1 µM came out at 27% in data set [1] (setting [6]), 34% in data set [1] (setting [7]) and 48% in data set [5]. This compound displayed an MS Dog THalf in data set [2] of 2 min. In data set [3], this compound came in with an MS Human THalf of 2 min. In data set [4], the MS Rat THalf was found to be 2 min.
As to `COc1cc(OC)nc(Cn2nnc3ccc(-c4ccc(OC(F)(F)F)cc4)cc3c2=O)n1` [II-44, 3-((4,6-dimethoxypyrimidin-2-yl)methyl)-6-(4-(trifluoromethoxy)phenyl)benzo[d][1,2,3]triazin-4(3H)-one], the inhibition at 1 µM in data set [1] (setting [6]) was found to be 10%; in data set [1] (setting [7]), 4%; in data set [5] it was 47%. The MS Dog THalf in data set [2] was 283 min. In addition, the MS Human THalf in data set [3] was found to be 167 min. Besides, the MS Rat THalf in data set [4] stood at 97 min.
In the case of `O=c1c2cc(-c3ccc(OC(F)(F)F)cc3)ccc2nnn1Cc1cc(-c2ccccn2)on1` [II-47, 3-((5-(pyridin-2-yl)isoxazol-3-yl)methyl)-6-(4-(trifluoromethoxy)phenyl)benzo[d][1,2,3]triazin-4(3H)-one], the inhibition at 1 µM in data set [1] (setting [6]) is 6%; in data set [1] (setting [7]) it was 4%; in data set [5] it was 44%. The compound further gave an MS Dog THalf in data set [2] of 24 min. For the same compound, in data set [3], the MS Human THalf was 339 min. In addition, the MS Rat THalf in data set [4] is 71 min.
